We go through nine molecules from paper PMC10384183, “Silver(I) and Copper(II) 1,10-Phenanthroline-5,6-dione Complexes as Promising Antivirulence Strategy against Leishmania: Focus on Gp63 (Leishmanolysin)” (Tropical Medicine and Infectious Disease, 2023).

Like-named read-outs stand apart in the source and are kept apart here. Where a SMILES comes first, the peptide text is derived from it. The star is where a group is joined. AMC = Cc1cc(=O)oc2cc(N*)ccc12; Cbz = O=C(OCc1ccccc1)*

Assay [1] concerns the target T1, secreted gp63 (Leishmania amazonensis, UniProt Q27673). Put plainly: Detection of gp63 activity using fluorogenic substrate Z-Phe-Arg-AMC (kinetics, classical inhibitors). The format is biochemical. The arrangement: endogenous in cells; host or cells: Leishmania amazonensis promastigotes; 0.22-µm filtered PBS-glucose-conditioned supernatant. The following applies: for effect on hydrolysis of Z-Phe-Arg-AMC by gp63: 1 h, alkaline pH. The procedure:
The enzymatic activity of secreted gp63 was evaluated by the cleavage of the fluorogenic substrate Z-Phe-Arg-AMC. A 5 mM stock solution of the fluorogenic substrate was prepared in DMSO. The reaction was initiated by adding different substrate concentrations (2.5 µM, 5.0 µM, 10 µM and 20 µM) to gp63 (20 µg protein) in a total volume of 100 µL of 50 mM glycine-NaOH buffer, pH 10.0 [38]. At the same time, the titration of the amount of gp63 was also performed. In this sense, different concentrations of gp63 (ranging from 0.156 to 20 µg) were added to 10 µM Z-Phe-Arg-AMC substrate in a total volume of 100 µL of 50 mM glycine-NaOH buffer, pH 10.0. […] The reaction mixture was incubated at 37 °C for 1 h and the assays were controlled for self-release of the fluorophore in the same time interval. Proteolytic activity was expressed as fluorescence arbitrary units (FAU). Apparent Km and Vmax values were calculated using a computerized non-linear regression from the data obtained from the Michaelis–Menten equation (GraphPad Prism 8).

The target in a further assay is LasB. More on the design: method as in PMID 31428062. To be noted: cited from earlier work.
Assay [2] concerns L. braziliensis gp63, membrane-associated form. The arrangement: method as in PMID 34363115. The following applies: cited from earlier work.
Assay [3] concerns the target T1, secreted gp63. Put plainly: biochemical.
Description: (§1) L. amazonensis promastigotes (10^9 cells) were resuspended in 2 mL of sterile isotonic PBS supplemented with 2% glucose and incubated for 3 h at both 26 °C (invertebrate host temperature) and 37 °C (mammalian host temperature). After this interval, parasite cells were removed by centrifugation and the supernatant (named PBS-glucose-conditioned supernatant) was passed over a 0.22-μm sterilizing membrane (Millipore, São Paulo, Brazil). The protein concentration was quantified by the method described by Lowry et al. [35], using bovine serum albumin (BSA) as standard.
(§2) To perform this, the reaction mixture containing 10 μg protein, 10 µM substrate and 50 mM glycine-NaOH buffer, pH 10.0, was incubated in the absence or presence of different concentrations of Ag-phendione (ranging from 40 to 0.625 μM) and Cu-phendione (ranging from 1000 to 15.62 μM). Fluorescence was measured using a SpectraMax Gemini XPS fluorescence microplate reader (Molecular Devices, Silicon Valley, CA, USA) at an excitation wavelength of 380 nm and an emission wavelength of 460 nm. […] The inhibitory constant (Ki) value was calculated using a derivation of the Michaelis–Menten equation employing GraphPad Prism 8.
For assay [4], the target named is T1, secreted gp63. Put plainly: Gelatin-SDS-PAGE zymography of gp63 proteolysis. The format is biochemical. More on the design: endogenous in cells; host or cells: Leishmania amazonensis promastigotes; 0.22-µm filtered PBS-glucose-conditioned supernatant. To be noted: 10 mM, pH 10.0, 48 h, 37 °C. As for the experimental part:
Proteolytic activity was assayed by SDS-PAGE containing 0.1% gelatin (Sigma-Aldrich, St. Louis, MO, USA) incorporated into the gel as the proteinaceous substrate. Briefly, 10 micrograms of proteins present in the PBS-glucose-conditioned supernatant were added to the SDS-PAGE sample buffer (125 mM Tris, pH 6.8, 4% SDS, 20% glycerol and 0.002% bromophenol blue) and subsequently subjected to electrophoresis, which was processed at 200 V/20 mA, for 2 h at 4 °C. Subsequently, SDS was removed by incubation of the gels with 2.5% Triton X-100 (Sigma-Aldrich, St. Louis, MO, USA) for 1 h at room temperature under constant agitation. The gels were incubated for 48 h at 37 °C in 50 mM glycine-NaOH buffer, pH 10.0, to promote proteolysis in the absence and in the presence of classical proteolytic inhibitors as follows: 10 mM phen, 10 mM phenylmethylsulphonyl fluoride (PMSF; Sigma-Aldrich, St. Louis, MO, USA) and 10 µM trans-epoxysuccinyl L-leucylamido-(4-guanidino) butane (E-64; Sigma-Aldrich, St. Louis, MO, USA). Finally, the gels were stained with 0.2% Coomassie Brilliant Blue R-250 (Sigma-Aldrich, St. Louis, MO, USA) in methanol–acetic acid–water (50:10:40) and destained in a solution containing methanol–acetic acid–water (5:10:85). The molecular masses of the peptidases were estimated by comparison with the mobility of molecular mass standards (Thermo Fisher Scientific, Waltham, MA, USA).

In another assay the test system is papain. More on the design: method as in PMID 8907521. The following applies: cited from earlier work.
Assay [5] deals with L. amazonensis amastigotes. More on the design: method as in PMID 36678418. To be noted: amastigotes in THP-1 macrophages; cited from earlier work.
The subject of assay [6] is cell-associated metallo-type peptidases (gp63). Put plainly: gp63 proteolytic activity of cell extracts of treated promastigotes. Format: cell-based, Leishmania amazonensis. To be noted: promastigotes treated 24 h, IC50 and 2 × IC50; Z-Phe-Arg-AMC; versus untreated cells. The procedure:
After that, promastigotes were washed and processed to evaluate both gp63 activity and gp63 protein levels.
For gp63 proteolytic activity, initially, whole parasite cellular extracts were obtained by repeated freeze/thawing cycles using 10^6 viable cells in PBS containing 1% CHAPS (3-[(3-cholamidopropyl) dimethylammonium]-1-propanesulfonate), pH 7.0. […] The gp63 proteolytic activity was determined as previously described using the cleavage of the fluorogenic substrate Z-Phe-Arg-AMC.

Assay [7] concerns L. amazonensis promastigotes. More on the design: method as in PMID 36678418. The following applies: 72 h of parasite-drug contact; cited from earlier work.
Assay [8] has as its system L. braziliensis promastigotes and murine macrophages. The arrangement: method as in PMID 34363115. The following applies: promastigotes pre-treated for 1 h; cited from earlier work.
Assay [9] concerns L. amazonensis promastigotes and THP-1 human macrophages. Put plainly: Promastigotes-macrophage interaction (association index). The format is cell-based, Leishmania amazonensis. More on the design: key: % infected macrophages × amastigotes per macrophage. As for the experimental part: The human leukemia monocytic cell line (THP-1) was maintained in 25-cm^2 tissue culture flasks with RPMI 1640 medium (Sigma-Aldrich, St. Louis, MO, USA) supplemented with 10% FBS at 37 °C in an atmosphere containing 5% CO2. To perform interaction experiments, THP-1 cells were seeded in 24-well plates at a density of 2 × 10^5 cells/well and then differentiated into macrophages by treatment with phorbol-12-myristate-13-acetate (PMA; 40 ng/mL) (Sigma-Aldrich) for 48 h. Then, the plates were washed twice with sterile PBS (pH 7.2) to remove PMA and a fresh RPMI 1640 medium was added. At the same time, L. amazonensis promastigotes were treated with the IC50 or 2 × IC50 values of the test compounds for 24 h. After this period, the parasites were allowed to infect the mammalian cells (10 parasites per macrophage) for 24 h at 37 °C and 5% CO2, in the absence or presence of 10 µg soluble gp63. Then, the cultures were washed with PBS to remove non-internalized parasites, fixed with methanol and stained with Giemsa. The percentage of infected macrophages was determined by randomly counting 200 cells on each of triplicate coverslips using a bright-field microscope. The association index was obtained by multiplying the percentage of infected macrophages by the number of amastigotes per macrophage.

The target of assay [10] is T1, secreted gp63.
Description: as §1, §2
A further assay concerns L. braziliensis. The arrangement: method as in doi:10.1016/j.ejmcr.2022.100093. The following applies: hamsters; cited from earlier work.
Setting [11] is: promastigotes pre-treated 24 h with 2 × IC50 value, in the presence of 10 µg gp63-rich supernatant.
[12] abbreviates: promastigotes pre-treated 24 h with 2 × IC50 value, without gp63-rich supernatant.
The mark [13] stands for this setting: promastigotes pre-treated 24 h with IC50 value, in the presence of 10 µg gp63-rich supernatant.
Where [14] appears, read: promastigotes pre-treated 24 h with IC50 value, without gp63-rich supernatant.

T1 sequence (Q27673 100-597): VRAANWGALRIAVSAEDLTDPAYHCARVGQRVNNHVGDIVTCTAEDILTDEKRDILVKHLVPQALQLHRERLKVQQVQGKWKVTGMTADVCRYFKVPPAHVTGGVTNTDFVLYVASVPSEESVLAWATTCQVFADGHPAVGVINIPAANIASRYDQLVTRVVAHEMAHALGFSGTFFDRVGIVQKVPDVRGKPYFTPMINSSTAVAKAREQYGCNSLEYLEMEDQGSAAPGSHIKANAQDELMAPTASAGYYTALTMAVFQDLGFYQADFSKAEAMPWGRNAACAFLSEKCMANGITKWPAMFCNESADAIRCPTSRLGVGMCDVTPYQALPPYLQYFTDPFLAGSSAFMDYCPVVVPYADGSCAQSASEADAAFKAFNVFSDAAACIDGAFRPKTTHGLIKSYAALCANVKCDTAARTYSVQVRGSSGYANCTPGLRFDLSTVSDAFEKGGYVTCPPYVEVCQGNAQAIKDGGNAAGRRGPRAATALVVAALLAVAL

As to `CC(C)C[C@H](NC(=O)[C@H]1O[C@@H]1C(=O)O)C(=O)NCCCCN=C(N)N` (relative stereo) [E-64, trans-epoxysuccinyl L-leucylamido-(4-guanidino) butane], the “effect on hydrolysis of Z-Phe-Arg-AMC by gp63” value (from here on “effect on hydrolysis”) on secreted gp63 [1] (inhibitor at 10 µM) was “did not significantly change the enzymatic activity”.

The term Ki denotes the dissociation constant of the complex between target and ligand, obtained from inhibition or displacement. The term IC50 denotes the concentration at which inhibition is half-maximal. Take `O=C1C(=O)c2cccnc2-c2ncccc21` [Phendione, 1,10-Phenanthroline-5,6-dione]: the Ki at LasB was 0.38 µM. Also, in [2] (1 μg/mL), the “reduction of proteolytic activity” value is 67%. On secreted gp63 [3], this molecule displayed an IC50 of 1490 µM and a Ki of 745 µM.

Take `c1cnc2c(c1)ccc1cccnc12` [Phen, 1,10-phenanthroline]: the “effect on proteolytic bands around 66 kDa” value at secreted gp63 [4] is reported as “inhibited”. Besides, at secreted gp63 [1] (inhibitor at 10 mM), the “effect on hydrolysis” value was “strong inhibition of the proteolytic activity”.

For the molecule “oryzacystatin I1 [OCII, reference compound]”, the “proteolytic activity of papain restored after electrophoresis” value with papain is given as approximately 100%.

In general, Vmax refers to the top rate of the reaction or transport when substrate is in excess. A word on the Km: it is the concentration of substrate that gives half-maximal velocity. Turning to `Cc1cc(=O)oc2cc(NC(=O)C(CCCN=C(N)N)NC(=O)C(Cc3ccccc3)NC(=O)OCc3ccccc3)ccc12` (stereo not drawn) [Z-Phe-Arg-AMC] (Cbz-Phe-Arg-{AMC}; configuration not given here), the Vmax at secreted gp63 [1] (cleavage of Z-Phe-Arg-AMC by released gp63, pH 10.0, 37 °C) is recorded as 0.064 µM/s. In addition, at secreted gp63 [1] (cleavage of Z-Phe-Arg-AMC by released gp63, pH 10.0, 37 °C, read-out: apparent Km), the Km is 14.2 µM.

Regarding `O=S(=O)(F)Cc1ccccc1` [PMSF, phenylmethylsulphonyl fluoride], the “effect on hydrolysis” value on secreted gp63 [1] (inhibitor at 10 mM) is “did not significantly change the enzymatic activity”.

`O.O.O.O.O=C1C(=O)c2cccnc2-c2ncccc21.O=C1C(=O)c2cccnc2-c2ncccc21.O=C1C(=O)c2cccnc2-c2ncccc21.[Cu+2].[O-][Cl+3]([O-])([O-])[O-].[O-][Cl+3]([O-])([O-])[O-]` [Cu-phendione, [Cu(phendione)3](ClO4)2.4H2O]: the IC50 in assay [5] is 0.035 µM; in assay [7], 0.0075 µM; against secreted gp63 [10] (secreted gp63 10 µg, 10 µM Z-Phe-Arg-AMC, glycine-NaOH pH 10.0, 37 °C, 1 h), 163 µM. For the same molecule, the “proteolytic capacity of cell-associated metallo-type peptidases reduced to” value in assay [6] is recorded as “approximately 48%”. Moreover, the inhibition constant Ki on LasB was 0.09 µM; at secreted gp63 [10] (secreted gp63, Z-Phe-Arg-AMC, glycine-NaOH pH 10.0), 27.1 µM. In addition, the “reduction of proteolytic activity” value is recorded as 65% in assay [2] (0.1 μg/mL) and 80% in assay [2] (1 μg/mL). The “reduction of the Leishmania-macrophage interaction” value in assay [8] is recorded as 44.4%. For the same molecule, the “association index (AI)” value in assay [9] (setting [11]) was determined as 64.6; in assay [9] (setting [12]), 54.8; in assay [9] (setting [13]), 76.5; in assay [9] (setting [14]) it was 63.1. For the same molecule, the “protective action (paw lesion, parasite number in paw and lymph nodes)” value with L. braziliensis was “excellent protective action”.

Regarding `O=C1C(=O)c2cccnc2-c2ncccc21.O=C1C(=O)c2cccnc2-c2ncccc21.[Ag+].[O-][Cl+3]([O-])([O-])[O-]` [Ag-phendione, [Ag(phendione)2]ClO4], the “proteolytic capacity of cell-associated metallo-type peptidases reduced to” value in assay [6] was “approximately 55%”. Moreover, in assay [2] (1 μg/mL), the “reduction of proteolytic activity” value is recorded as 68%. In addition, the “reduction of the Leishmania-macrophage interaction” value in assay [8] is recorded as “approximately 51.4%”. The “association index (AI)” value in assay [9] (setting [11]) is reported as 77.3; in assay [9] (setting [12]), 48.2; in assay [9] (setting [13]), 88.1; in assay [9] (setting [14]), 60.6. Further, the “protective action (paw lesion, parasite number in paw and lymph nodes)” value in the assay with L. braziliensis was “excellent protective action”.

B1: oryzacystatin I (protein, UniProt P09229 27-140, looked up)
Cysteine proteinase inhibitor …: EAHRAGGEGEEKMSSDGGPVLGGVEPVGNENDLHLVDLARFAVTEHNKKANSLLEFEKLVSVKQQVVAGTLYYFTIEVKEGDAKKLYEAKVWEKPWMDFKELQEFKPVDASANA
As for B1, in the assay with papain, the “inhibition of enzymatic activity of papain by the complex after electrophoresis” value is recorded as “about 80%”.
